Laboratory results published in patent US10017524B2, “Compound and pharmaceutical composition for neuropsychological disorder or malignant tumor” (KYOTO UNIVERSITY, priority 2012, dated 2018).

Assays:
[1] = test system: phosphorylation of a threonine residue at position 212 of tau protein by DYRK1A protein; test: Inhibitory activity on phosphorylation of tau protein in cultured cells expressing tau and DYRK1A (western blot, Thr212); assay type: cell-based; settings: compounds of 10 μM, phospho-Thr212 tau, cells expressing tau and DYRK1A
Experimental: The inhibitory activity of the compounds synthesized in the production examples on the phosphorylation of tau protein was evaluated by an evaluation system using the following cultured cells.
The cultured cells that can induce the expressions of tau protein and DYRK1A protein individually and that allow the phosphorylation of the tau protein to be evaluated depending on the activity of the DYRK1A protein were used in the evaluation system. […] Therefore, the inhibitory activity on the phosphorylation of the tau protein can be evaluated by inducing the expressions of both the tau protein and the DYRK1A protein, and evaluating the degree of phosphorylation of a threonine residue at position 212 of the tau protein.
The compounds 1, 4, and 6 to 9 (10 μM) were added to the evaluation system, and the phosphorylation of the tau protein was detected with the antibody that specifically recognizes the phosphorylation of a threonine residue at position 212 of the tau protein. […] The “control” represents the result of adding no compound.
The inhibitory activity of the compounds 1 and 2 on the phosphorylation of tau protein was evaluated in the same manner as the Experimental example 1.
The “control” represents the result of adding no compound.
The inhibitory activity of the compounds 3, 6, and 9 to 15 on the phosphorylation of tau protein was evaluated in the same manner as the experimental example 1. FIGS. 7 to 9 show an example of the results.

PC-9-GR-high lines = test: Growth inhibition, microscopic observation; assay type: cell-based, human; settings: microscope
[2] = test system: Down's syndrome-derived acute megakaryoblastic leukemia (AMKL) cells KPAM1; test: Inhibition of growth of cancer cells (Alamar Blue); assay type: cell-based; settings: KPAM1, cultivation for 5 days
Experimental: (§1) Specifically, the cells were seeded on a 24 Well plate, and the compounds at a predetermined concentration were added. After cultivation for 5 days, the number of cells was calculated by detecting the fluorescence intensity with Alamar Blue. The culture medium containing the compounds was replaced every day. FIGS. 10 to 12 show an example of the results.

[3] = test system: retinoblastoma cell lines WERI; test: Inhibition of growth of cancer cells (Alamar Blue); assay type: cell-based
Experimental: as §1

[4] = test system: human lung adenocarcinoma-derived cell lines (PC-9); test: Growth inhibition, microscopic observation; assay type: cell-based; settings: PC-9 lines, microscope
[5] = test system: PC-9-GR-step lines (gefitinib-resistant sub-lines of PC-9); test: Growth inhibition, microscopic observation; assay type: cell-based, human; settings: microscope
[6] = test system: MDA-MB-453 human breast cancer cells (triple-negative); test: Growth inhibition, adherent and non-adherent culture (Alamar Blue); assay type: cell-based; settings: MDA-MB-453, cells cultured to prevent adhering
Experimental: as §1
(§2) In addition, the effect was also confirmed when the target cells were cultured to prevent them from adhering to each other.

[7] = test system: MDA-MB-468 human breast cancer cells (triple-negative); test: as above; assay type: cell-based; settings: MDA-MB-468, cells cultured to prevent adhering
Experimental: as §1, §2

## CCN1/C(=C/C(C)=O)Sc2ccc3oc4ccccc4c3c21 [Compound 3, (Z)-1-[1-ethylbenzo[2,3]benzofuro[4,5-d]thiazol-2(1H)-ylidene]propan-2-one]
[1]
  inhibitory effect on the phosphorylation of the tau protein: inhibitory effect
PC-9-GR-high lines
  apoptosis-inducing activity on the cancer cells: excellent apoptosis-inducing activity
[2]
  inhibitory effect on the growth of the cancer cells: excellent inhibitory effect
[3]
  inhibitory effect on the growth of the cancer cells: inhibitory effect
[4]
  apoptosis-inducing activity on the cancer cells: excellent apoptosis-inducing activity
[5]
  apoptosis-inducing activity on the cancer cells: excellent apoptosis-inducing activity
[6]
  inhibitory effect on the anchorage-independent growth: inhibitory effect
[7]
  inhibitory effect on the anchorage-independent growth: inhibitory effect
